Values quoted from earlier work in paper PMC8287028 (Frontiers in Veterinary Science, 2021).

Tested on: Factor Xa
Parameters: method as in PMID 35442563
Details: 19 sick dogs, post-treatment monitoring; cited from earlier work

For `O=C(NC[C@H]1CN(c2ccc(N3CCOCC3=O)cc2)C(=O)O1)c1ccc(Cl)s1` [rivaroxaban], the “dogs with aXa activities below the range associated with positive clinical outcomes in humans” value is listed as 8/19 and the “dogs with aXa activities exceeding the range associated with positive clinical outcomes in humans” value is listed as 8/19.
